Reference: paper PMC5433425 (PeerJ, 2017)

Assays:
E. coli AG100tet = assay: EtBr efflux by real-time fluorometry; details: 80 µM
Method: Control tubes with only cells and cells with and without 0.4% glucose were included. The fluorescence was measured in a Rotor-Gene 3000 and the data was acquired every 30 s for 30 min at 37 °C. The efflux activity was quantified by comparing the fluorescence data obtained under conditions that promote efflux (presence of glucose and absence of efflux inhibitor) with the data from the control in which the bacteria are under conditions of no efflux (presence of an inhibitor and no energy source).

E. coli AG100 = assay: Membrane potential assay (BacLight, DiOC2(3))
E. coli AG100A = assay: microbe, parasite or virus in culture; type: cell-based, Escherichia coli

**Q.** CCCOc1ccc(-c2cc(OCCN3CCNCC3)c3ccccc3n2)cc1 [PQQ4R, 4-(2-(piperazin-1-yl)ethoxy)-2-(4-propoxyphenyl) quinolone] was tested. Which “Fluorescence raw data, Channel Cycling A.530/585hp” value (“Fluorescence raw data” for short) (E. coli AG100tet; cycle 21, + glucose) did it give?
**A.** The value was 4.567.

**Q.** What about the “Fluorescence raw data” value (E. coli AG100tet; cycle 21, without glucose) of the same compound?
**A.** The value was 3.257.

**Q.** What about the “Fluorescence raw data” value (E. coli AG100tet; cycle 22, + glucose) of the same compound?
**A.** The value was 4.692.

**Q.** And the “Fluorescence raw data” value (E. coli AG100tet; cycle 22, without glucose)?
**A.** The value was 3.214.

**Q.** And the “Fluorescence raw data” value (E. coli AG100tet; cycle 23, + glucose)?
**A.** Its value is 4.73.

**Q.** And the “Fluorescence raw data” value (E. coli AG100tet; cycle 23, without glucose)?
**A.** Its value is 3.261.

**Q.** And the “Fluorescence raw data” value (E. coli AG100tet; cycle 24, + glucose)?
**A.** Its value is 4.823.

**Q.** What about the “Fluorescence raw data” value (E. coli AG100tet; cycle 24, without glucose) of the same compound?
**A.** The value was 3.277.

**Q.** And the “Fluorescence raw data” value (E. coli AG100tet; cycle 25, + glucose)?
**A.** Its value is 4.864.

**Q.** What about the “Fluorescence raw data” value (E. coli AG100tet; cycle 25, without glucose) of the same compound?
**A.** Its value is 3.306.

**Q.** What about the “Fluorescence raw data” value (E. coli AG100tet; cycle 26, + glucose) of the same compound?
**A.** Its value is 4.922.

**Q.** And the “Fluorescence raw data” value (E. coli AG100tet; cycle 26, without glucose)?
**A.** Its value is 3.351.

**Q.** And the “Fluorescence raw data” value (E. coli AG100tet; cycle 27, + glucose)?
**A.** Its value is 4.884.

**Q.** And the “Fluorescence raw data” value (E. coli AG100tet; cycle 27, without glucose)?
**A.** Its value is 3.344.

**Q.** And the “Fluorescence raw data” value (E. coli AG100tet; cycle 28, + glucose)?
**A.** The value was 5.012.

**Q.** What about the “Fluorescence raw data” value (E. coli AG100tet; cycle 28, without glucose) of the same compound?
**A.** The value was 3.341.

**Q.** And the “Fluorescence raw data” value (E. coli AG100tet; cycle 29, + glucose)?
**A.** The value was 5.042.

**Q.** And the “Fluorescence raw data” value (E. coli AG100tet; cycle 29, without glucose)?
**A.** Its value is 3.312.

**Q.** And the “Fluorescence raw data” value (E. coli AG100tet; cycle 30, + glucose)?
**A.** The value was 5.087.

**Q.** And the “Fluorescence raw data” value (E. coli AG100tet; cycle 30, without glucose)?
**A.** The value was 3.355.

**Q.** What about the “Fluorescence raw data” value (E. coli AG100tet; cycle 31, + glucose) of the same compound?
**A.** Its value is 5.094.

**Q.** And the “Fluorescence raw data” value (E. coli AG100tet; cycle 31, without glucose)?
**A.** Its value is 3.321.

**Q.** And the “Fluorescence raw data” value (E. coli AG100tet; cycle 32, + glucose)?
**A.** Its value is 5.074.

**Q.** And the “Fluorescence raw data” value (E. coli AG100tet; cycle 32, without glucose)?
**A.** Its value is 3.301.

**Q.** What about the “Fluorescence raw data” value (E. coli AG100tet; cycle 33, + glucose) of the same compound?
**A.** The value was 5.085.

**Q.** What about the “Fluorescence raw data” value (E. coli AG100tet; cycle 33, without glucose) of the same compound?
**A.** The value was 3.3487.

**Q.** And the “Fluorescence raw data” value (E. coli AG100tet; cycle 34, + glucose)?
**A.** The value was 5.136.

**Q.** What about the “Fluorescence raw data” value (E. coli AG100tet; cycle 34, without glucose) of the same compound?
**A.** The value was 3.377.

**Q.** What about the “Fluorescence raw data” value (E. coli AG100tet; cycle 35, + glucose) of the same compound?
**A.** Its value is 5.101.

**Q.** What about the “Fluorescence raw data” value (E. coli AG100tet; cycle 35, without glucose) of the same compound?
**A.** The value was 3.39.

**Q.** What about the “Fluorescence raw data” value (E. coli AG100tet; cycle 36, + glucose) of the same compound?
**A.** Its value is 5.167.

**Q.** What about the “Fluorescence raw data” value (E. coli AG100tet; cycle 36, without glucose) of the same compound?
**A.** Its value is 3.3989.

**Q.** And the “Fluorescence raw data” value (E. coli AG100tet; cycle 37, + glucose)?
**A.** The value was 5.0249.

**Q.** What about the “Fluorescence raw data” value (E. coli AG100tet; cycle 37, without glucose) of the same compound?
**A.** The value was 3.336.

**Q.** And the “Fluorescence raw data” value (E. coli AG100tet; cycle 38, + glucose)?
**A.** The value was 5.139.

**Q.** And the “Fluorescence raw data” value (E. coli AG100tet; cycle 38, without glucose)?
**A.** The value was 3.322.

**Q.** And the “Fluorescence raw data” value (E. coli AG100tet; cycle 39, + glucose)?
**A.** Its value is 5.07.

**Q.** What about the “Fluorescence raw data” value (E. coli AG100tet; cycle 39, without glucose) of the same compound?
**A.** Its value is 3.367.

**Q.** And the “Fluorescence raw data” value (E. coli AG100tet; cycle 40, + glucose)?
**A.** Its value is 5.071.

**Q.** And the “Fluorescence raw data” value (E. coli AG100tet; cycle 40, without glucose)?
**A.** The value was 3.292.

**Q.** And the “Fluorescence raw data” value (E. coli AG100tet; cycle 41, + glucose)?
**A.** The value was 5.036.

**Q.** And the “Fluorescence raw data” value (E. coli AG100tet; cycle 41, without glucose)?
**A.** The value was 3.413.

**Q.** And the “Fluorescence raw data” value (E. coli AG100tet; cycle 42, + glucose)?
**A.** Its value is 4.946.

**Q.** And the “Fluorescence raw data” value (E. coli AG100tet; cycle 42, without glucose)?
**A.** The value was 3.2813.

**Q.** And the “Fluorescence raw data” value (E. coli AG100tet; cycle 43, + glucose)?
**A.** The value was 5.023.

**Q.** And the “Fluorescence raw data” value (E. coli AG100tet; cycle 43, without glucose)?
**A.** Its value is 3.329.

**Q.** What about the “Fluorescence raw data” value (E. coli AG100tet; cycle 44, + glucose) of the same compound?
**A.** The value was 4.8625.

**Q.** What about the “Fluorescence raw data” value (E. coli AG100tet; cycle 44, without glucose) of the same compound?
**A.** The value was 3.331.

**Q.** And the “Fluorescence raw data” value (E. coli AG100tet; cycle 45, without glucose)?
**A.** The value was 3.333.

**Q.** And the “Fluorescence raw data” value (E. coli AG100tet; cycle 46, without glucose)?
**A.** The value was 3.356.

**Q.** What about the “Fluorescence raw data” value (E. coli AG100tet; cycle 47, without glucose) of the same compound?
**A.** Its value is 3.3344.

**Q.** And the “Fluorescence raw data” value (E. coli AG100tet; cycle 48, without glucose)?
**A.** The value was 3.246.

**Q.** And the “Fluorescence raw data” value (E. coli AG100tet; cycle 49, without glucose)?
**A.** The value was 3.317.

**Q.** What about the “Fluorescence raw data” value (E. coli AG100tet; cycle 50, without glucose) of the same compound?
**A.** The value was 3.306.

**Q.** And the “Fluorescence raw data” value (E. coli AG100tet; cycle 51, without glucose)?
**A.** Its value is 3.275.

**Q.** What about the “Fluorescence raw data” value (E. coli AG100tet; cycle 52, without glucose) of the same compound?
**A.** Its value is 3.293.

**Q.** And the “Fluorescence raw data” value (E. coli AG100tet; cycle 53, without glucose)?
**A.** Its value is 3.359.

**Q.** And the “Fluorescence raw data” value (E. coli AG100tet; cycle 54, without glucose)?
**A.** Its value is 3.295.

**Q.** What about the “Fluorescence raw data” value (E. coli AG100tet; cycle 55, without glucose) of the same compound?
**A.** Its value is 3.253.

**Q.** What about the “Fluorescence raw data” value (E. coli AG100tet; cycle 56, without glucose) of the same compound?
**A.** Its value is 3.229.

**Q.** What about the “Fluorescence raw data” value (E. coli AG100tet; cycle 57, without glucose) of the same compound?
**A.** Its value is 3.179.

**Q.** And the “Fluorescence raw data” value (E. coli AG100tet; cycle 58, without glucose)?
**A.** Its value is 3.169.

**Q.** And the “Fluorescence raw data” value (E. coli AG100tet; cycle 59, without glucose)?
**A.** The value was 3.145.

**Q.** What about the “Fluorescence raw data” value (E. coli AG100tet; cycle 60, without glucose) of the same compound?
**A.** The value was 3.211.

**Q.** What about the “Fluorescence raw data” value (E. coli AG100tet; cycle 61, without glucose) of the same compound?
**A.** Its value is 3.105.

**Q.** What about the membrane depolarization (E. coli AG100; 80 µM) of the same compound?
**A.** Its membrane depolarization is 83%.

**Q.** What about the membrane depolarization (E. coli AG100; 160 μM (1/4 MIC)) of the same compound?
**A.** Its membrane depolarization is 85%.

**Q.** What about the membrane depolarization (E. coli AG100; 320 μM (1/2 MIC)) of the same compound?
**A.** Its membrane depolarization is 89%.

**Q.** And the membrane depolarization (E. coli AG100; 640 μM (MIC))?
**A.** Its membrane depolarization is 91%.

**Q.** And the “MIC of EtBr in presence of the efflux inhibitor” value (E. coli AG100A; AG100A, inhibitor 40 μM)?
**A.** Its value is 0.39 µg/mL.

**Q.** What about the “MIC of OFX in presence of the efflux inhibitor” value (E. coli AG100A; AG100A, inhibitor 40 μM) of the same compound?
**A.** Its value is 0.03 µg/mL.

**Q.** What about the “MIC of OXA in presence of the efflux inhibitor” value (E. coli AG100A; AG100A, inhibitor 40 μM) of the same compound?
**A.** Its value is 1 µg/mL.

**Q.** What about the “MIC of TET in presence of the efflux inhibitor” value (E. coli AG100A; AG100A, inhibitor 40 μM) of the same compound?
**A.** Its value is 0.25 µg/mL.

**Q.** What about the “effect on the MIC of the antibiotics” value (E. coli AG100A; AG100A, inhibitor 40 μM) of the same compound?
**A.** The value was “no effect”.

**Q.** And the “reduction in EtBr MIC” value (E. coli AG100A; AG100A, inhibitor 40 μM)?
**A.** The value was “≈ 8 fold”.

**Q.** What about the “growth of AG100A in presence of the inhibitor” value (E. coli AG100A; concentrations above 40 µM) of the same compound?
**A.** The value was “did not grow”.
